Source: US7915293B2, “Ubiquitin ligase inhibitors” (Rigel Pharmaceuticals, Inc., priority 2003, dated 2011)

Target: E3 (His-APC11/APC2-"APC") (Homo sapiens, UniProt Q9NYG5+Q9UJX6)
Test: Plate-based E3 ligase assay (APC FLAG), auto-ubiquitination
Assay type: biochemical
Set-up: key: “+” indicates that the compound exibits inhibitory activity; “−” indicates that low or no inhibitory activity was observed
Conditions: 2 concentrations tested
Experimental: E3 (His-APC11/APC2-“APC”) auto-ubiquitination was measured as described in U.S. patent application Ser. No. 09/826,312 (Publication No. US-2002-0042083-A1), which is incorporated herein in its entirety. Details of the protocol are described below. Activity in the presence of the compound was determined relative to a parallel control in which only DMSO was added. Values of the IC50 were typically determined using 6 or 8 different concentrations of the compound, although as few as 2 concentrations may be used to approximate the IC50 value.
Nickel-coated 96-well plates (Pierce 15242) were blocked for 1 hour with 100 μl of blocking buffer at room temperature. The plates were washed 4 times with 225 μl of 1×PBS and 80 μl of the reaction buffer were added that contained 100 ng/well of Flag-ubiquitin. To this, 10 μl of the test compound diluted in DMSO were added. After the test compound was added, 10 μl of E1 (human), E2 (Ubch5c), and APC in Protein Buffer was added to obtain a final concentration of 5 ng/well of E1, 20 ng/well of E2 and 100 ng/well of APC. The plate were shaken for 10 minutes and incubated at room temperature for 1 hour. After incubation, the plates were washed 4 times with 225 μl of 1×PBS and 100 μl/well of Antibody Mix were added to each well. The plates were incubate at room temperature for another hour after which they were washed 4 times with 225 μl of 1×PBS and 100 μl/well of Lumino substrate were added to each well. The luminescence was measured by using a BMG luminescence microplate reader.
To prepare the Blocking Buffer (1 liter; 1% Casein in 1×PBS), 10 grams of Casein (Hammersten Grade Casein from Gallard-Schlesinger Inc. #440203) were placed into 1 liter of 1×PBS, stirred on a hot plate and kept between 50-60° C. for an hour. The buffer was allowed to cool to room temperature and then filtered using a Buchner Funnel (Buchner filter funnel 83 mm 30310-109) and Whatman filter paper (Whatman Grade No. 1 Filter paper 28450-070). It was stored at 4° C. until used.
The reaction buffer consisted of 62.5 mM Tris pH 7.6 (Trizma Base—Sigma T-8524), 3 mM MgCl2 (Magnesium Chloride—Sigma M-2393), 1 mM DTT (Sigma D-9779), 2.5 mM ATP (Roche Boehringer Mann Corp. 635-316), 100 ng/well of Flag-ubiquitin, 0.1% BSA (Sigma A-7906), and 0.05% Tween-20 (Sigma P-7949).
The Protein Buffer consisted of 20 mM Tris pH 7.6, 10% glycerol (Sigma G-5516) and 1 mM DTT.
The antibody mix consisted of 0.25% BSA (Sigma A-7906) in 1×PBS, 1/50,000 anti-Flag (Sigma F-3165), 1/100,000 of anti-Mouse IgG-HRP (Jackson Immunoresearch #115-035-146).
The substrate mix consisted of SuperSignal Substrate from Pierce (catalog number 37070ZZ) and was prepared by mixing 100 ml of the peroxide solution, 100 ml of the enhancer solution and 100 ml of Milli-Q® water.

E3 (His-APC11/APC2-"APC"), sequence (Q9NYG5 whole entry): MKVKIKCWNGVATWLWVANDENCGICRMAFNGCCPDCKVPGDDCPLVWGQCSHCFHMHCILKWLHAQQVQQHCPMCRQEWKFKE
E3 (His-APC11/APC2-"APC"), sequence (Q9UJX6 whole entry): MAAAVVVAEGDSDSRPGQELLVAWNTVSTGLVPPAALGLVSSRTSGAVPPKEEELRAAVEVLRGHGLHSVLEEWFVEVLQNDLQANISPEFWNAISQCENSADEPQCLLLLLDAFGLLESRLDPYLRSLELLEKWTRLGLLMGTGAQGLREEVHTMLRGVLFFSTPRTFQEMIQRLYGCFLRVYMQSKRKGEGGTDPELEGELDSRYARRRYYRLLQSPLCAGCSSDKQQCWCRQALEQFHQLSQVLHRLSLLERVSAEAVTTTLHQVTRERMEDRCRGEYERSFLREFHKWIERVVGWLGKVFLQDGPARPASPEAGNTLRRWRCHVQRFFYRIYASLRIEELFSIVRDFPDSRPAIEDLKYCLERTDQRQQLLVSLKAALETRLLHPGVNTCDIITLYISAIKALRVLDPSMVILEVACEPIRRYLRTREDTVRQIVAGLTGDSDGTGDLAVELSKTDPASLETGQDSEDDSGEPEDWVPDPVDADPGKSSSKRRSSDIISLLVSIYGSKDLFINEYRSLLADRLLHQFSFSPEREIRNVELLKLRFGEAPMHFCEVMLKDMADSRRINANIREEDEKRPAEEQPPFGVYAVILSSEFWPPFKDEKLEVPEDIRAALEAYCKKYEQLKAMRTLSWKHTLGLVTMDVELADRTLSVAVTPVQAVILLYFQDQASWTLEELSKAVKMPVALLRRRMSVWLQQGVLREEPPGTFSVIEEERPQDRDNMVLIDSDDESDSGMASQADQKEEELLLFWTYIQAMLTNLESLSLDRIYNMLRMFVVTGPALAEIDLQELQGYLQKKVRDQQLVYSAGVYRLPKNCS

Row | APC Flag (2 pt) | SMILES
1 | − (2 pt) | O=S(=O)(Nc1ccc(F)c(Cl)c1)c1ccc(Oc2ccc(F)cc2)cc1 [Example 189, N-(3-chloro-4-fluorophenyl)-4-(4-fluoro-phenoxy)benzenesulfonamide]
2 | − (2 pt) | CC(=O)c1cccc(NS(=O)(=O)c2cc(Cl)c(Oc3ccc([N+](=O)[O-])cc3Cl)c(Cl)c2)c1 [Example 186, N-(3-acetylphenyl)-3,5-dichloro-4-(2-chloro-4-nitrophenoxy)benzenesulfonamide]

Same assay, conditions: 8 concentrations tested

Row | APC Flag 8 pt | SMILES
3 | + | O=[N+]([O-])c1ccc(Oc2c(Cl)cc(S(=O)(=O)Nc3ccc(F)c(F)c3)cc2Cl)c(Cl)c1 [Example 197, 3,5-dichloro-4-(2-chloro-4-nitrophenoxy)-N-(3,4-difluorophenyl)benzenesulfonamide]
4 | − | O=[N+]([O-])c1cccc(Cl)c1Oc1ccc(S(=O)(=O)Nc2cccc(Br)c2)cc1 [Example 183, N-(3-bromophenyl)-4-(2-chloro-6-nitro-phenoxy)benzenesulfonamide]
5 | + | COc1ccc(Cl)cc1NS(=O)(=O)c1cc(Cl)c(Oc2ccc([N+](=O)[O-])cc2Cl)c(Cl)c1 [Compound 164, 3,5-dichloro-N-(5-chloro-2-methoxyphenyl)-(2-chloro-4-nitrophenoxy)lbenzenesulfonamide]
6 | + | CC(C)Oc1ccc(NS(=O)(=O)c2cc(Cl)c(Oc3ccc([N+](=O)[O-])cc3Cl)c(Cl)c2)cc1 [Compound 134, 3,5-dichloro-4-(2-chloro-4-nitrophenoxy)-N-[4-isopropoxyphenyl]benzenesulfonamide]
7 | − | O=[N+]([O-])c1ccc(Oc2c(Cl)cc(S(=O)(=O)N3CCOCC3)cc2Cl)c(Cl)c1 [Example 15, 4-{[3,5-dichloro-4-(2-chloro-4-nitro-phenoxy)phenyl]sulfonyl}morpholine]
8 | + | Cc1cccc(NS(=O)(=O)c2cc(Cl)c(Oc3ccc([N+](=O)[O-])cc3Cl)c(Cl)c2)c1 [Example 161, 3,5-dichloro-4-(2-chloro-4-nitrophenoxy)-N-(3-methylphenyl)benzenesulfonamide]
9 | − | O=[N+]([O-])c1ccc(Oc2c(Cl)cc(S(=O)(=O)NCc3ccc(Br)cc3)cc2Cl)c(Cl)c1 [Compound 128, N-(4-bromobenzyl)-3,5-dichloro-4-(2-chloro-4-nitrophenoxy)benzenesulfonamide]
10 | − | N=C(NS(=O)(=O)c1cc(Cl)c(Oc2ccc([N+](=O)[O-])cc2)c(Cl)c1)c1ccc(Cl)cc1 [Example 34, 4-chloro-N-{[3,5-dichloro4-(4-nitrophenoxy)phenyl]sulfonyl}benzenecarboximidamide]
11 | + | N=C(Nc1ccc(Cl)cc1)NS(=O)(=O)c1cc(Cl)c(Oc2ccc([N+](=O)[O-])cc2Cl)c(Cl)c1 [Example 211, 3,5-dichloro-4-(2-chloro-4-nitrophenoxy)-N-[[(4-chlorophenyl)amino](imino)methyl] benzenesulfonamide]
12 | − | O=[N+]([O-])c1ccc(Oc2c(Cl)cc(S(=O)(=O)N3CCCC3)cc2Cl)c(Cl)c1 [Example 22, 1-{[3,5-dichloro-4-(2-chloro-4-nitrophenoxy)phenyl]sulfonyl}pyrrolidine]
13 | + | O=C(NCC1CC1)c1ccc(NS(=O)(=O)c2cc(Cl)c(Oc3ccc([N+](=O)[O-])cc3Cl)c(Cl)c2)cc1 [Example 152, N-(cyclopropylmethyl)-4-({[3,5-dichloro-4-(2-chloro-4-nitrophenoxy)phenyl]sulfonyl}amino)benzamide]
14 | − | N=C(NS(=O)(=O)c1cc(Cl)c(Oc2ccc([N+](=O)[O-])cc2Cl)c(Cl)c1)c1ccccc1 [Example 212, N-{[3,5-dichloro-4-(2-chloro-4-nitro-phenoxy)phenyl]sulfonyl}benzene-carboximidamide]
15 | + | O=[N+]([O-])c1ccc(Oc2c(Cl)cc(S(=O)(=O)Nc3cc(F)cc(F)c3)cc2Cl)c(Cl)c1 [Example 177, 3,5-dichloro-4-(2-chloro-4-nitrophenoxy)-N-(3,5-difluorophenyl)benzenesulfonamide]
16 | + | O=[N+]([O-])c1ccc(Oc2c(Cl)cc(S(=O)(=O)Nc3cc(OC(F)(F)F)ccc3Br)cc2Cl)c(Cl)c1 [Example 293, N-(2-bromo-5-(trifluoromethoxy)phenyl)-3,5-dichloro-4-(2-chloro-4-nitrophenoxy)benzenesulfonamide]
17 | + | CC1CC(C)CN(S(=O)(=O)c2cc(Cl)c(Oc3ccc([N+](=O)[O-])cc3Cl)c(Cl)c2)C1 (centres unmarked) [Example 20, 1-{[3,5-dichloro-4-(2-chloro-4-nitrophenoxy)phenyl]sulfonyl}-3,5-dimethylpiperidine]
18 | + | O=[N+]([O-])c1ccc(Oc2c(Cl)cc(S(=O)(=O)NCCc3ccc(Cl)cc3Cl)cc2Cl)c(Cl)c1 [Example 127, 3,5-dichloro-4-(2-chloro-4-nitrophenoxy)-N-[2-(2,4-dichlorophenyl)ethyl]benzene-sulfonamide]
19 | + | O=[N+]([O-])c1ccc(Oc2c(Cl)cc(S(=O)(=O)Nc3cccc(Cl)c3Cl)cc2Cl)c(Cl)c1 [Example 178, 3,5-dichloro-4-(2-chloro-4-nitrophenoxy)-N-(2,3-dichlorophenyl)benzenesulfonamide]
20 | + | CC(=O)N(C(C)=O)c1ccc(Oc2c(Cl)cc(S(=O)(=O)Nc3cccc(Cl)c3)cc2Cl)c(Cl)c1 [Example 280, N-acetyl-N-[3-chloro-4-(2,6-dichloro-4-{[(3-chlorophenyl)amino]sulfonyl}phenoxy)phenyl]acetamide]
21 | − | O=[N+]([O-])c1ccc(Oc2c(Cl)cc(S(=O)(=O)Nc3ccc(Cl)cc3)cc2Cl)c(Cl)c1 [Example 176, 3,5-dichloro-4-(2-chloro-4-nitrophenoxy)-N-(4-chlorophenyl)benzenesulfonamide]
22 | − | O=C(NCC1CC1)[C@@H]1CCCN1S(=O)(=O)c1cc(Cl)c(Oc2ccc([N+](=O)[O-])cc2Cl)c(Cl)c1 [Compound 139, N-(cyclopropylmethyl)-1-{[3,5-dichloro-4-(2-chloro-4-nitrophenoxy)phenyl]sulfonyl}prolinamide]
23 | − | CC1CCN(S(=O)(=O)c2cc(Cl)c(Oc3ccc([N+](=O)[O-])cc3Cl)c(Cl)c2)CC1 [Example 19, 1-{[3,5-dichloro-4-(2-chloro-4-nitrophenoxy)phenyl]sulfonyl}-4-methylpiperidine]
24 | − | O=[N+]([O-])c1ccc(Oc2c(Cl)cc(S(=O)(=O)NCC3CCCO3)cc2Cl)c(Cl)c1 (centres unmarked) [Example 121, 3,5-dichloro-4-(2-chloro-4-nitrophenoxy)-N-(tetrahydrofuran-2-ylmethyl)benzene-sulfonamide]
25 | + | N=C(Nc1nc2ccccc2[nH]1)NS(=O)(=O)c1cc(Cl)c(Oc2ccc([N+](=O)[O-])cc2Cl)c(Cl)c1 [Example 225, N-[(1H-benzimidazol-2-ylamino)(imino)methyl]-3,5-dichloro-4-(2-chloro-4-nitro-phenoxy)benzenesulfonamide]
26 | − | O=[N+]([O-])c1ccc(Oc2c(Cl)cc(S(=O)(=O)NCc3ccncc3)cc2Cl)c(Cl)c1 [Example 133, 3,5-dichloro-4-(2-chloro-4-nitrophenoxy)-N-(pyridin-4-ylmethyl)benzenesulfonamide]
